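Protocol summary: plate cells (96-well), add compound at 5 concentrations, incubate 48 h, interpolate endpoints linearly. GI50: concentration for 50% inhibition of growth.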 The source made the active and inactive calls. Rule as the data show it: active = GI50 up to about 1.1 µM and inactive = higher.
Experiments:
Test in all cases: NCI-60 cell line screen, 48 h
A549 = test system: A549
ACHN = test system: ACHN
HCT-116 = test system: HCT-116
HL-60 = test system: HL-60
HT-29 = test system: HT-29
KM12 = test system: KM12
LOX IMVI = test system: LOX IMVI
MDA-MB-435 = test system: MDA-MB-435
Malme-3M = test system: Malme-3M
NCI/ADR-RES = test system: NCI/ADR-RES
OVCAR-3 = test system: OVCAR-3
SF-295 = test system: SF-295
SF-539 = test system: SF-539
SK-MEL-28 = test system: SK-MEL-28
SK-MEL-2 = test system: SK-MEL-2
SK-MEL-5 = test system: SK-MEL-5
SN12C = test system: SN12C
HCC 2998 = test system: HCC 2998
OVCAR-4 = test system: OVCAR-4
RPMI-8226 = test system: RPMI-8226

Measured: GI50

N#CC12COC3(CCCCC3C1(C#N)C#N)OC2=N (stereo not drawn)
inactive: A549 24.7 µM | ACHN 15.1 µM | HCT-116 12.6 µM | HL-60 2.91 µM | HT-29 11.3 µM | KM12 > 10 µM | LOX IMVI 12.9 µM | MDA-MB-435 18.9 µM | Malme-3M 16.3 µM | NCI/ADR-RES 28.2 µM | OVCAR-3 11.1 µM | SF-295 19.5 µM | SF-539 13.9 µM | SK-MEL-28 14.6 µM | SK-MEL-2 12.7 µM | SK-MEL-5 11.4 µM | SN12C 12.3 µM

O=C1c2ccccc2/N=C(/c2cc3c(cc2Cl)Sc2nccn2S3(=O)=O)OS(=O)(=O)N1c1ccccc1
inactive: A549 30.3 µM | ACHN 25.8 µM | HCC 2998 8.36 µM | HCT-116 15.5 µM | HL-60 31.3 µM | HT-29 23.3 µM | KM12 23 µM | LOX IMVI 8.09 µM | MDA-MB-435 21.3 µM | Malme-3M 73.8 µM | OVCAR-3 37 µM | OVCAR-4 21.1 µM | RPMI-8226 18.6 µM | SF-295 16.9 µM | SF-539 36.7 µM | SN12C 32.1 µM

CN(CC(=O)O)c1ncc2c(n1)C=CCC2
inactive: A549 > 100 µM | ACHN > 100 µM | HCT-116 > 100 µM | HL-60 81.5 µM | HT-29 > 100 µM | KM12 > 100 µM | LOX IMVI > 100 µM | MDA-MB-435 > 100 µM | Malme-3M > 100 µM | NCI/ADR-RES > 100 µM | OVCAR-3 > 100 µM | OVCAR-4 > 100 µM | RPMI-8226 > 100 µM | SF-295 > 100 µM | SF-539 > 100 µM | SK-MEL-28 > 100 µM | SK-MEL-2 > 100 µM | SK-MEL-5 > 100 µM | SN12C > 100 µM

CC(C)(C)OC(=O)N1CC(O)O[C@H](c2ccccc2)[C@@H]1c1ccccc1 (stereo partly drawn)
inactive: A549 18.7 µM | HCT-116 44.6 µM | HT-29 20.6 µM | KM12 19.2 µM | LOX IMVI 35.7 µM | MDA-MB-435 17.3 µM | Malme-3M 19.4 µM | NCI/ADR-RES 26.4 µM | OVCAR-3 15.6 µM | OVCAR-4 18.5 µM | RPMI-8226 24.7 µM | SF-295 16.4 µM | SK-MEL-28 18.6 µM | SK-MEL-2 14.5 µM | SK-MEL-5 27.9 µM | SN12C 38.2 µM

C=CCCC(=O)N1CCC(C(=O)OCC)C1=O (stereo not drawn)
inactive: A549 > 100 µM | ACHN > 100 µM | HCT-116 > 100 µM | HL-60 > 100 µM | KM12 > 100 µM | LOX IMVI > 100 µM | MDA-MB-435 > 100 µM | Malme-3M > 100 µM | NCI/ADR-RES > 100 µM | OVCAR-4 > 100 µM | SF-295 > 100 µM | SF-539 > 100 µM | SK-MEL-28 > 100 µM | SK-MEL-2 > 100 µM | SK-MEL-5 > 100 µM | SN12C > 100 µM

N#CC(C(=O)/C(=N/N)C(C#N)c1ccc(Cl)cc1)c1ccc(Cl)cc1 (stereo not drawn)
inactive: A549 > 100 µM | ACHN > 100 µM | HCC 2998 > 100 µM | HCT-116 > 100 µM | HL-60 > 100 µM | HT-29 > 100 µM | KM12 > 100 µM | LOX IMVI > 100 µM | Malme-3M > 100 µM | OVCAR-3 > 100 µM | OVCAR-4 > 100 µM | RPMI-8226 > 100 µM | SF-295 > 100 µM | SF-539 > 100 µM | SK-MEL-28 > 10 µM | SK-MEL-2 > 100 µM | SK-MEL-5 > 100 µM | SN12C > 100 µM

O=C1COC(c2ccccc2O)=NN1CCCN1CCCC1
inactive: A549 > 100 µM | ACHN > 100 µM | HCT-116 > 100 µM | HT-29 > 100 µM | KM12 > 100 µM | MDA-MB-435 > 100 µM | Malme-3M > 100 µM | NCI/ADR-RES > 100 µM | OVCAR-3 > 100 µM | OVCAR-4 > 100 µM | RPMI-8226 > 100 µM | SF-295 > 100 µM | SF-539 > 100 µM | SK-MEL-28 > 100 µM | SK-MEL-2 > 100 µM | SK-MEL-5 > 100 µM | SN12C > 100 µM

C=C(C)CC1=C(OCC)C(OC)(OCC)C1=O (stereo not drawn)
inactive: A549 > 100 µM | ACHN > 100 µM | HCT-116 > 100 µM | HL-60 > 100 µM | HT-29 > 100 µM | KM12 > 100 µM | LOX IMVI > 100 µM | MDA-MB-435 > 100 µM | NCI/ADR-RES > 100 µM | OVCAR-3 > 100 µM | OVCAR-4 > 100 µM | SF-295 > 100 µM | SF-539 > 100 µM | SK-MEL-28 > 100 µM | SK-MEL-2 > 100 µM | SK-MEL-5 > 100 µM | SN12C > 100 µM

CC(C)=CC(=O)C1c2cccc(O)c2C(=O)c2c(O)cc(C)cc21 (stereo not drawn)
inactive: A549 1.92 µM | ACHN 2.12 µM | HCC 2998 1.2 µM | HCT-116 2.14 µM | HL-60 3.24 µM | HT-29 6.97 µM | KM12 1.63 µM | LOX IMVI 1.86 µM | Malme-3M 2.76 µM | OVCAR-3 1.99 µM | OVCAR-4 2.13 µM | RPMI-8226 3.61 µM | SF-295 1.84 µM | SF-539 1.56 µM | SK-MEL-28 3.05 µM | SK-MEL-2 1.98 µM | SK-MEL-5 2.05 µM | SN12C 5.71 µM

CC(C)(O)C1CC(=O)C(C)(C2C(O)CC3(C)C4CC=C5C(CCC(O)C5(C)C)C4(C)C(=O)CC23C)O1 (stereo not drawn)
inactive: A549 > 100 µM | ACHN > 100 µM | HCC 2998 > 100 µM | HCT-116 > 100 µM | HT-29 > 100 µM | KM12 > 100 µM | LOX IMVI > 100 µM | MDA-MB-435 > 100 µM | OVCAR-3 > 100 µM | OVCAR-4 > 100 µM | RPMI-8226 > 100 µM | SF-295 > 100 µM | SF-539 > 100 µM | SK-MEL-28 > 100 µM | SK-MEL-2 > 100 µM | SK-MEL-5 > 100 µM | SN12C > 100 µM

O=c1oc2ccccc2c2c(=O)c3ccc(OC/C(=N/O)c4ccc(Cl)cc4)cc3oc12
inactive: A549 13.2 µM | ACHN 5.85 µM | HCT-116 11.2 µM | HL-60 9.25 µM | KM12 3.11 µM | LOX IMVI 11.8 µM | MDA-MB-435 2.47 µM | NCI/ADR-RES 7.35 µM | OVCAR-3 3.62 µM | RPMI-8226 11.7 µM | SF-295 1.89 µM | SF-539 7.89 µM | SK-MEL-2 4.85 µM | SK-MEL-5 5.05 µM | SN12C 19.9 µM

c1cc2c3c(c1)[C@@H]1O[C@@H]1c1cccc(c1-3)[C@@H]1O[C@H]21
inactive: A549 31.6 µM | ACHN 18.7 µM | HCT-116 15 µM | HT-29 17.7 µM | KM12 17.1 µM | LOX IMVI 3.08 µM | MDA-MB-435 14.3 µM | Malme-3M 15.4 µM | NCI/ADR-RES 22.4 µM | OVCAR-4 19.8 µM | SF-295 23.6 µM | SK-MEL-28 15.7 µM | SK-MEL-2 17.4 µM | SK-MEL-5 17.9 µM | SN12C 19.7 µM

O=C1C(NS(=O)(=O)c2ccccc2)=C(n2ccnc2)C(=O)c2ccccc21
inactive: A549 > 100 µM | ACHN > 100 µM | HCT-116 > 100 µM | HL-60 > 100 µM | HT-29 > 100 µM | KM12 > 100 µM | LOX IMVI > 100 µM | MDA-MB-435 > 100 µM | Malme-3M 96.4 µM | NCI/ADR-RES > 100 µM | OVCAR-3 > 100 µM | OVCAR-4 > 100 µM | RPMI-8226 > 100 µM | SF-295 > 100 µM | SF-539 > 100 µM | SK-MEL-28 > 100 µM | SK-MEL-2 > 100 µM | SK-MEL-5 > 100 µM | SN12C > 100 µM

N#Cc1ccc(Oc2ccccc2)cc1C#N
inactive: A549 > 100 µM | ACHN > 100 µM | HCC 2998 > 100 µM | HCT-116 74.8 µM | HL-60 28.2 µM | HT-29 53.2 µM | KM12 > 100 µM | LOX IMVI 20.7 µM | Malme-3M > 100 µM | OVCAR-3 > 100 µM | OVCAR-4 96.2 µM | RPMI-8226 42.8 µM | SF-295 > 100 µM | SF-539 > 100 µM | SK-MEL-28 > 100 µM | SK-MEL-2 82.4 µM | SK-MEL-5 > 100 µM | SN12C 96.4 µM

CC1(C)SC2C(NC(=O)C(C(=O)O)c3ccccc3)C(=O)N2C1C(=O)O (stereo not drawn)
inactive: ACHN > 100 µM | HCT-116 > 100 µM | HL-60 > 100 µM | HT-29 > 100 µM | KM12 > 100 µM | LOX IMVI > 100 µM | MDA-MB-435 > 100 µM | Malme-3M > 100 µM | NCI/ADR-RES > 100 µM | OVCAR-3 > 100 µM | RPMI-8226 > 100 µM | SF-295 > 100 µM | SF-539 > 100 µM | SK-MEL-28 > 100 µM | SK-MEL-2 > 100 µM | SK-MEL-5 > 100 µM | SN12C > 100 µM

Cn1c2c(c3ccccc3c1=O)C(=O)c1ccccc1-2
inactive: A549 > 100 µM | HCT-116 15.5 µM | HL-60 6.93 µM | HT-29 97.5 µM | KM12 > 100 µM | LOX IMVI 27.2 µM | MDA-MB-435 > 100 µM | Malme-3M > 100 µM | NCI/ADR-RES 51.2 µM | OVCAR-3 76.4 µM | OVCAR-4 29.9 µM | RPMI-8226 > 100 µM | SF-295 > 100 µM | SF-539 19.7 µM | SK-MEL-28 > 100 µM | SK-MEL-2 > 100 µM | SK-MEL-5 29.9 µM | SN12C 80.2 µM

Source: ChEMBL document CHEMBL1201862, “PubChem BioAssay data set” (2004)
